The target of experiment [1] is cathepsin B (Homo sapiens, UniProt P07858). The experiment in a line: Inhibition of cathepsin B, fluorogenic substrate Z-Arg-Arg-AMC. In kind it is biochemical. Here is the method:
The assay at 250 was started by the addition of cat B (final concentration approx 10 nM) and the increase in fluorescence at 450 nm with excitation at 380 nm was followed over 2 min. The depression in the rate of substrate hydrolysis following addition of varying concentrations of inhibitors was noted. The assay was linear throughout the range observed. Duplicate runs were measured.
(§1) The respective Ki values were estimated by using the Dixon plot as described by Irwin Segel in Enzyme Kinetics: Behavior and analysis of rapid equilibrium and steady-state enzyme systems, 1975, Wiley-lnterscience Publication, John Wiley & Sons, New York.

Experiment [2] has as its target cathepsin L (Homo sapiens, UniProt P07711). In words: Inhibition of cathepsin L, fluorogenic substrate Z-Phe-Arg-AMC. In kind it is biochemical. Here is the method:
(§2) Conditions for cathepsin L: 50 mM acetate, pH 5.5, 2.5 mM EDTA, 2.5 mM DTT. substrate: [Z-Phe-Arg-AMC]=[…] (Km=2 mM). The assay at 25^0 was started by the addition of cat L (final concentration approx 1 nM) and the increase in fluorescence at 450 nm with excitation at 380 nm was followed over 2 min. The depression in the rate of substrate hydrolysis following addition of varying concentrations of inhibitors was noted. The assay was linear throughout the range observed. Duplicate runs were measured.
as §1

Experiment [3] concerns the target cruzain (Trypanosoma cruzi, UniProt P25779). In words: Inhibition of cruzain (conditions as for cathepsin L). In kind it is biochemical, T. cruzi. Here is the method:
as §2
Conditions for cruzain were the same as for cathepsin L with the exception that the Km for the substrate was 1 mM.
as §1

Setting [4] is: 50 mM phosphate, pH 6.0, 2.5 mM EDTA, 2.5 mM DTT, Dixon plot, read-out: cathepsin B (Ki μM).
Where [5] appears, read: 50 mM acetate, pH 5.5, 2.5 mM EDTA, 2.5 mM DTT, Dixon plot, read-out: cathepsin L (Ki μM).
[6] abbreviates: 50 mM acetate, pH 5.5, 2.5 mM EDTA, 2.5 mM DTT, Km 1 mM, Dixon plot, read-out: cruzain (Ki μM).

Drawing on US5776718A, “Reversible protease inhibitors” (Arris Pharmaceutical Corporation, priority 1996, dated 1998), this text covers Ki for 19 compounds.

Like-named read-outs stand apart in the source and are kept apart here.

Chain of cruzain (P25779 123-467): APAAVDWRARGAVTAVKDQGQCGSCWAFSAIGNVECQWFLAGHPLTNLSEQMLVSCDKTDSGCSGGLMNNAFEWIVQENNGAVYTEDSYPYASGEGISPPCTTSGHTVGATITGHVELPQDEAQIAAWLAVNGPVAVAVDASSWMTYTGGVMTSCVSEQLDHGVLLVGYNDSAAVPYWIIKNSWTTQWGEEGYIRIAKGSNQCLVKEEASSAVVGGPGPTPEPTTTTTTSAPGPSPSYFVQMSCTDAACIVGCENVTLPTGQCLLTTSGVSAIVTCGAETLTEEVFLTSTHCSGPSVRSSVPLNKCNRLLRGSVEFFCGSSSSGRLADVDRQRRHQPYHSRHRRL
Chain of cathepsin L (P07711 114-333, species assumed): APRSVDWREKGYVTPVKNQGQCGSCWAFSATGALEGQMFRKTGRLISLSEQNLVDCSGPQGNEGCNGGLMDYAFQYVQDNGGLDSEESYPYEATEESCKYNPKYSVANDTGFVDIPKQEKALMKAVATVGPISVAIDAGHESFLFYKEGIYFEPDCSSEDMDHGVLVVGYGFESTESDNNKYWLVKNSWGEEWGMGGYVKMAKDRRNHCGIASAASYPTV

Usually Ki stands for a measure of affinity in units of concentration, obtained from inhibition or displacement. For the compound `COC(=O)CCC(=O)N[C@@H](Cc1ccccc1)C(=O)N[C@@H](CCc1ccccc1)CCS(=O)(=O)c1ccccc1` [MeOSuc--Phe--HphγSO2 Ph, methyl 3-{2-phenyl-1S-[3-phenyl-1S-(2-phenylsulfonylethyl)propylcarbamoyl]ethylcarbamoyl}propionate], the Ki in experiment [1] (setting [4]) is 81 µM; in experiment [2] (setting [5]), 3.2 µM; in experiment [3] (setting [6]) it was 4.7 µM.
The corresponding values for `O=C(N[C@@H](CCc1ccccc1)CCS(=O)(=O)c1ccc2ccccc2c1)[C@H](Cc1ccc2ccccc2c1)NC(=O)N1CCOCC1` [Mu--Np2-HphγSO2 Np, N^2-(4-morpholinylcarbonyl)-N^1 -{3-phenyl-1S-[2-(2-naphthylsulfonyl)ethyl]propyl}-β-(2-naphthyl)-L-alaninamide] are 20 µM, 0.26 µM and 0.1 µM.
As for `Nc1ccc(CC[C@H](CCc2ccccc2)NC(=O)[C@H](Cc2ccccc2)NC(=O)N2CCOCC2)cc1` [Mu--Phe--Hph--γPh--NH2, N^2-(4-morpholinylcarbonyl)-N^1 -{3-phenyl-1S-[2-(4-aminophenyl)ethyl]propyl}-L-phenylalaninamide], the Ki in experiment [2] (setting [5]) was found to be 2.9 µM; in experiment [3] (setting [6]), 3 µM.
Turning to `COc1ccc(CC[C@H](CCc2ccccc2)NC(=O)[C@H](Cc2ccccc2)NC(=O)N2CCOCC2)cc1` [Mu--Phe--Hph-γPh--OMe, N^2-(4-morpholinylcarbonyl)-N^1 -{3-phenyl-1S-[2-(4-methoxyphenyl)ethyl]propyl}-L-phenylalaninamide], the Ki in experiment [1] (setting [4]) turned out to be 4.8 µM; in experiment [2] (setting [5]) it was 0.94 µM; in experiment [3] (setting [6]), 0.89 µM.
In the same order, the values of `O=C(NC(CCc1ccccc1)S(=O)(=O)Cc1ccccc1)[C@H](Cc1ccccc1)NC(=O)N1CCOCC1` (stereo partly drawn) [Mu--Phe--HphαSO2 Bzl, N^2-(4-morpholinylcarbonyl)-N^1-(3-phenyl-1-benzylsulfonylpropyl)-L-phenylalaninamide] are 77 µM, 1.2 µM and 0.92 µM.
In the same order, the values of `O=C(NC(CCc1ccccc1)S(=O)(=O)C(F)(F)F)[C@H](Cc1ccccc1)NC(=O)N1CCOCC1` (stereo partly drawn) [Mu--Phe--HphαSO2 CR3, N^2-(4-morpholinylcarbonyl)-N^1-(3-phenyl-1-trifluoromethylsulfonylpropyl)-L-phenylalaninamide] are 50 µM, 0.18 µM and 0.23 µM.
The corresponding values for `O=C(N[C@@H](CCc1ccccc1)CS(=O)(=O)c1ccccc1)[C@H](Cc1ccccc1)NC(=O)N1CCOCC1` [Mu--Phe--HphβSO2 Ph, N^1-(4-morpholinylcarbonyl)-N^1-(3-phenyl-1S-phenylsulfonylmethylpropyl)-L-phenylalaniamide] are 1100 µM, 29 µM and 5.7 µM.
On to `CCOC(=O)CC[C@H](CCc1ccccc1)NC(=O)[C@H](Cc1ccccc1)NC(=O)N1CCOCC1` [Mu--Phe--HphγCO2 Et, ethyl 4S-[N-(4-morpholinylcarbonyl)-L-phenylalanylamino]-6-phenylhexanoate], for which the Ki in experiment [1] (setting [4]) turned out to be 1.6 µM; in experiment [2] (setting [5]) it was 0.48 µM; in experiment [3] (setting [6]), 0.91 µM.
Take `O=C(CC[C@H](CCc1ccccc1)NC(=O)[C@H](Cc1ccccc1)NC(=O)N1CCOCC1)NCc1ccccc1` [Mu--Phe--HphγCONHBzl, N^2-(4-morpholinylcarbonyl)-N^1-[3-phenyl-1S-(2-benzylcarbamoylethyl)propyl]-L-phenylalaninamide]: the inhibitory constant (Ki) in experiment [2] (setting [5]) is 19 µM; in experiment [3] (setting [6]), 7.7 µM.
Consider `O=C(CC[C@H](CCc1ccccc1)NC(=O)[C@H](Cc1ccccc1)NC(=O)N1CCOCC1)Nc1ccccc1` [Mu--Phe--HphγCONHPh, N^2-(4-morpholinylcarbonyl)-N^1-[3-phenyl-1S-(2-phenylcarbamoylethyl)propyl]-L-phenylalaninamide], for which the inhibition constant (Ki) in experiment [1] (setting [4]) stood at 2.6 µM; in experiment [2] (setting [5]) it was 2 µM; in experiment [3] (setting [6]) it was 0.13 µM.
For the compound `CCOP(=O)(CC[C@H](CCc1ccccc1)NC(=O)[C@H](Cc1ccccc1)NC(=O)N1CCOCC1)OCC` [Mu--Phe--HphγPO(O2 Et)2], the Ki was 17 µM in experiment [1], 3 µM in experiment [2] and 15 µM in experiment [3].
As for `O=C(N[C@@H](CCc1ccccc1)CCS(=O)(=O)CCc1ccccc1)[C@H](Cc1ccccc1)NC(=O)N1CCOCC1` [Mu--Phe--HphγSO2 EtPh, N^2-(4-morpholinylcarbonyl)-N^1 -{3-phenyl-1S-[2-(2-phenylethylsulfonyl)ethyl]propyl}-L-phenylalaninamide], the values for the inhibitory constant (Ki) in experiment [2] (setting [5]) and in experiment [3] (setting [6]) were 0.17 µM and 5.9 µM, respectively.
With `O=C(N[C@@H](CCc1ccccc1)CCS(=O)(=O)c1ccccc1)[C@H](Cc1ccccc1)NC(=O)N1CCOCC1` [Mu--Phe--HphγSO2 Ph, N^2-(4-morpholinylcarbonyl)-N^1-[3-phenyl-1S-(2-phenylsulfonylethyl)propyl]-L-phenylalaninamide], the Ki was determined as 48 µM in experiment [1] (setting [4]), 10 µM in experiment [2] (setting [5]) and 4.3 µM in experiment [3] (setting [6]).
With `O=C(N[C@@H](CCc1ccccc1)CCS(=O)(=O)c1ccccc1)[C@H](Cc1ccc(O)cc1)NC(=O)N1CCOCC1` [Mu--Tyr--HphγSO2 Ph, (S)-3-(4-morpholinecarbonyltyrosyl)-amino-5-phenyl-1-phenylsulfonylpentane], the Ki was 2.3 µM in experiment [2] (setting [5]) and 20 µM in experiment [3].
For `O=C(Cc1ccccc1)N[C@@H](Cc1ccccc1)C(=O)N[C@@H](CCc1ccccc1)CCS(=O)(=O)c1ccccc1` [Phac--Phe--HphγSO2 Ph, N^2-phenylacetyl-N^1-[3-phenyl-1S-(2-phenylsulfonylethyl)propyl]-L-phenylalaninamide], the Ki is > 10 µM in experiment [1] (setting [4]), 0.41 µM in experiment [2] (setting [5]) and 1.8 µM in experiment [3] (setting [6]).
In the same order, the values of `O=C(O)CCC(=O)N[C@@H](Cc1ccc2ccccc2c1)C(=O)N[C@@H](CCc1ccccc1)CCS(=O)(=O)c1ccc2ccccc2c1` [Suc--Np2--HphγSO2 2Np] are > 1000 µM, 0.11 µM and 0.23 µM.
The corresponding values for `O=C(O)CCC(=O)N[C@@H](Cc1ccc2ccccc2c1)C(=O)N[C@@H](CCc1ccccc1)CCS(=O)(=O)c1ccccc1` [Suc--Np2--HphγSO2 Ph, 3-{2-naphthyl-1S-[3-phenyl-1S-(2-phenylsulfonylethyl)propylcarbamoyl]ethylcarbamoyl}propionic acid] are > 1000 µM, 2.3 µM and 0.78 µM.
In the same order, the values of `O=C(O)CCC(=O)N[C@@H](Cc1ccccc1)C(=O)N[C@@H](CCc1ccccc1)CCS(=O)(=O)c1ccccc1` [Suc--Phe--HphγSO2 Ph, 3-{2-phenyl-1S-[3-phenyl-1S-(2-phenylsulfonylethyl)propylcarbamoyl]ethylcarbamoyl}propionic acid] are > 1000 µM, 1 µM and 1.5 µM.
For the compound `NCCC(=O)N[C@@H](Cc1ccccc1)C(=O)N[C@@H](CCc1ccccc1)CCS(=O)(=O)c1ccccc1` [β-Ala--Phe--HphγSO2 Ph, N^2-(β-alanyl)-N^1-[3-phenyl-1S-(2-phenylsulfonylethyl)propyl]-L-phenylalaninamide], the Ki in experiment [2] (setting [5]) and in experiment [3] (setting [6]) was 14 µM each time.
